# Measurements published in PubChem BioAssay (NCI).
#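 Grown in 96-well plates, cells were treated for 48 hours with each compound at five concentrations. Insufficient inhibition: endpoint recorded as highest concentration tested. Here, GI50 denotes the concentration required for 50% inhibition of growth. TGI marks complete inhibition of growth.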
# How the values were obtained:
# Assay in all cases: NCI tumour cell line growth inhibition, 48 h
# DMS 114 small cell lung = test system: DMS 114 small cell lung
# MCF7 breast = test system: MCF7 breast
# HCT-116 colon = test system: HCT-116 colon
# CCRF-CEM leukemia = test system: CCRF-CEM leukemia
# SF-295 CNS = test system: SF-295 CNS
# HCT-15 colon = test system: HCT-15 colon
# SK-OV-3 ovarian = test system: SK-OV-3 ovarian
# P388 leukemia = test system: P388 leukemia
# P388/ADR leukemia = test system: P388/ADR leukemia
# HOP-18 NSCLC = test system: HOP-18 NSCLC
# SNB-75 CNS = test system: SNB-75 CNS
# UACC-62 melanoma = test system: UACC-62 melanoma
# A549 NSCLC = test system: A549 NSCLC
# OVCAR-5 ovarian = test system: OVCAR-5 ovarian
# COLO 205 colon = test system: COLO 205 colon
# OVCAR-8 ovarian = test system: OVCAR-8 ovarian
# XF 498 CNS = test system: XF 498 CNS
# HOP-92 NSCLC = test system: HOP-92 NSCLC
# KM12 colon = test system: KM12 colon
# UACC-257 melanoma = test system: UACC-257 melanoma
# DLD-1 colon = test system: DLD-1 colon
# SN12K1 renal = test system: SN12K1 renal
# SN12C renal = test system: SN12C renal
# DMS 273 small cell lung = test system: DMS 273 small cell lung
# MALME-3M melanoma = test system: MALME-3M melanoma
# HOP-62 NSCLC = test system: HOP-62 NSCLC
# RPMI-8226 leukemia = test system: RPMI-8226 leukemia
# NCI-H23 lung = test system: NCI-H23 lung
# MOLT-4 leukemia = test system: MOLT-4 leukemia
# KM20L2 colon = test system: KM20L2 colon
# SW-620 colon = test system: SW-620 colon
# SF-539 CNS = test system: SF-539 CNS
# LOX IMVI melanoma = test system: LOX IMVI melanoma
# SNB-19 CNS = test system: SNB-19 CNS
# A498 renal = test system: A498 renal
# OVCAR-4 ovarian = test system: OVCAR-4 ovarian
# U251 CNS = test system: U251 CNS
# SK-MEL-28 melanoma = test system: SK-MEL-28 melanoma
# NCI-H226 lung = test system: NCI-H226 lung
# UO-31 renal = test system: UO-31 renal
# OVCAR-3 ovarian = test system: OVCAR-3 ovarian
# NCI-H522 lung = test system: NCI-H522 lung
# SNB-78 CNS = test system: SNB-78 CNS
# HL-60(TB) leukemia = test system: HL-60(TB) leukemia
# NCI/ADR-RES ovarian = test system: NCI/ADR-RES ovarian
# EKVX NSCLC = test system: EKVX NSCLC
# IGROV1 ovarian = test system: IGROV1 ovarian
# RXF 393 renal = test system: RXF 393 renal
# NCI-H460 lung = test system: NCI-H460 lung
# SK-MEL-2 melanoma = test system: SK-MEL-2 melanoma
# SK-MEL-5 melanoma = test system: SK-MEL-5 melanoma
# HCC-2998 colon = test system: HCC-2998 colon
# HT29 colon = test system: HT29 colon
# K-562 leukemia = test system: K-562 leukemia
# M19-MEL melanoma = test system: M19-MEL melanoma
# SF-268 CNS = test system: SF-268 CNS
# RXF-631 renal = test system: RXF-631 renal
# M14 melanoma = test system: M14 melanoma
# CAKI-1 renal = test system: CAKI-1 renal
# LXFL 529 NSCLC = test system: LXFL 529 NSCLC
# 786-0 renal = test system: 786-0 renal
# ACHN renal = test system: ACHN renal
# TK-10 renal = test system: TK-10 renal
smiles,measurement,setting,value
Cc1cc(-c2ccc(N=Nc3ccc4c(S(=O)(=O)O)cc(S(=O)(=O)O)c(N)c4c3O)c(C)c2)ccc1N=Nc1ccc2c(S(=O)(=O)O)cc(S(=O)(=O)O)c(N)c2c1O,TGI,DMS 114 small cell lung,> 100 µM
same,TGI,MCF7 breast,> 100 µM
same,TGI,HCT-116 colon,> 100 µM
same,TGI,CCRF-CEM leukemia,> 100 µM
same,TGI,SF-295 CNS,> 100 µM
same,TGI,HCT-15 colon,> 100 µM
same,TGI,SK-OV-3 ovarian,> 100 µM
same,TGI,P388 leukemia,> 100 µM
same,TGI,P388/ADR leukemia,> 100 µM
same,GI50,HOP-18 NSCLC,> 100 µM
same,TGI,HOP-18 NSCLC,> 100 µM
same,TGI,SNB-75 CNS,> 100 µM
same,TGI,UACC-62 melanoma,> 100 µM
same,TGI,A549 NSCLC,> 100 µM
same,TGI,OVCAR-5 ovarian,> 100 µM
same,TGI,COLO 205 colon,> 100 µM
same,TGI,OVCAR-8 ovarian,> 100 µM
same,TGI,XF 498 CNS,> 100 µM
same,TGI,HOP-92 NSCLC,> 100 µM
same,TGI,KM12 colon,> 100 µM
same,TGI,UACC-257 melanoma,> 100 µM
same,TGI,DLD-1 colon,> 100 µM
same,TGI,SN12K1 renal,> 100 µM
same,TGI,SN12C renal,> 100 µM
same,TGI,DMS 273 small cell lung,> 100 µM
same,TGI,MALME-3M melanoma,> 100 µM
same,TGI,HOP-62 NSCLC,> 100 µM
same,TGI,RPMI-8226 leukemia,> 100 µM
same,TGI,NCI-H23 lung,> 100 µM
same,TGI,MOLT-4 leukemia,> 100 µM
same,TGI,KM20L2 colon,> 100 µM
same,TGI,SW-620 colon,> 100 µM
same,TGI,SF-539 CNS,> 100 µM
same,TGI,LOX IMVI melanoma,> 100 µM
same,TGI,SNB-19 CNS,> 100 µM
same,TGI,A498 renal,> 100 µM
same,TGI,OVCAR-4 ovarian,> 100 µM
same,TGI,U251 CNS,> 100 µM
same,TGI,SK-MEL-28 melanoma,> 100 µM
same,TGI,NCI-H226 lung,> 100 µM
same,TGI,UO-31 renal,> 100 µM
same,TGI,OVCAR-3 ovarian,> 100 µM
same,TGI,NCI-H522 lung,> 100 µM
same,TGI,SNB-78 CNS,> 100 µM
same,TGI,HL-60(TB) leukemia,> 100 µM
same,TGI,NCI/ADR-RES ovarian,> 100 µM
same,TGI,EKVX NSCLC,> 100 µM
same,TGI,IGROV1 ovarian,> 100 µM
same,TGI,RXF 393 renal,> 100 µM
same,TGI,NCI-H460 lung,> 100 µM
same,TGI,SK-MEL-2 melanoma,> 100 µM
same,TGI,SK-MEL-5 melanoma,> 100 µM
same,TGI,HCC-2998 colon,> 100 µM
same,TGI,HT29 colon,> 100 µM
same,TGI,K-562 leukemia,> 100 µM
same,TGI,M19-MEL melanoma,> 100 µM
same,TGI,SF-268 CNS,> 100 µM
O=c1c2ccccc2nc(-c2cccc(Cl)c2)n1NC1OC(CO)C(O)C(O)C1O (configuration not stated),TGI,DMS 114 small cell lung,> 100 µM
same,TGI,HCT-116 colon,> 100 µM
same,TGI,CCRF-CEM leukemia,> 100 µM
same,TGI,RXF-631 renal,> 100 µM
same,TGI,SF-295 CNS,> 100 µM
same,TGI,HCT-15 colon,> 100 µM
same,TGI,SK-OV-3 ovarian,> 100 µM
same,TGI,HOP-18 NSCLC,> 100 µM
same,TGI,SNB-75 CNS,> 100 µM
same,TGI,M14 melanoma,> 100 µM
same,TGI,UACC-62 melanoma,> 100 µM
same,TGI,A549 NSCLC,> 100 µM
same,TGI,OVCAR-5 ovarian,> 100 µM
same,TGI,COLO 205 colon,> 100 µM
same,TGI,OVCAR-8 ovarian,> 100 µM
same,TGI,XF 498 CNS,> 100 µM
same,TGI,HOP-92 NSCLC,> 100 µM
same,TGI,KM12 colon,> 100 µM
same,TGI,UACC-257 melanoma,> 100 µM
same,TGI,CAKI-1 renal,> 100 µM
same,TGI,SN12C renal,> 100 µM
same,TGI,DMS 273 small cell lung,> 100 µM
same,TGI,MALME-3M melanoma,> 100 µM
same,TGI,HOP-62 NSCLC,> 100 µM
same,TGI,RPMI-8226 leukemia,> 100 µM
same,TGI,NCI-H23 lung,> 100 µM
same,TGI,MOLT-4 leukemia,> 100 µM
same,TGI,KM20L2 colon,> 100 µM
same,TGI,SW-620 colon,> 100 µM
same,TGI,SF-539 CNS,> 100 µM
same,TGI,SNB-19 CNS,> 100 µM
same,TGI,A498 renal,> 100 µM
same,TGI,OVCAR-4 ovarian,> 100 µM
same,TGI,LXFL 529 NSCLC,> 100 µM
same,TGI,786-0 renal,> 100 µM
same,TGI,U251 CNS,> 100 µM
same,TGI,SK-MEL-28 melanoma,> 100 µM
same,TGI,NCI-H226 lung,> 100 µM
same,TGI,UO-31 renal,> 100 µM
same,TGI,OVCAR-3 ovarian,> 100 µM
same,TGI,NCI-H522 lung,> 100 µM
same,TGI,ACHN renal,> 100 µM
same,TGI,SNB-78 CNS,> 100 µM
same,TGI,HL-60(TB) leukemia,> 100 µM
same,TGI,EKVX NSCLC,> 100 µM
same,TGI,IGROV1 ovarian,> 100 µM
same,TGI,TK-10 renal,> 100 µM
same,TGI,NCI-H460 lung,> 100 µM
same,TGI,SK-MEL-2 melanoma,> 100 µM
same,TGI,SK-MEL-5 melanoma,> 100 µM
same,TGI,HCC-2998 colon,> 100 µM
same,TGI,HT29 colon,> 100 µM
same,TGI,K-562 leukemia,> 100 µM
same,TGI,M19-MEL melanoma,> 100 µM
same,TGI,SF-268 CNS,> 100 µM
